Assay results published in patent US11478474B2, “2-(3′-(hydroxymethyl)-1-methyl-5-((5-(2-methyl-4-(oxetan-3-yl)piperazin-1-yl)pyridin-2-yl)amino)-6-oxo-1,6-dihydro-[3,4′-bipyridin]-2′-yl)-7,7-dimethyl-7,8-dihydro-2H-cyclopenta[4,5]pyrrolo[1,2-a]pyrazin-1(6H)-one as a BTK inhibitor” (HUTCHISON MEDIPHARMA LIMITED, priority 2020, dated 2022).

Key:
[1] = Stability test in liver microsomes (rat); assay type: in vitro ADME; conditions: for stability in rat & mouse liver microsomes compared with the reference GDC-0853: 30 minutes; for RLM (percentage of the remaining compound after 30 minutes of incubation): rat liver microsomes 0.5 mg/mL, compound 1 μM, 37° C.
From the text: (§1) Example 5 Stability Test in Liver Microsomes
(§2) Both male CD-1 mouse pooled liver microsomes and male SD rat pooled liver microsomes were purchased from BioreclamationIVT Corporation, USA.
(§3) Phenacetin, glucose-6-phosphate dehydrogenase (G-6-PDH) and nicotinamide adenine dinucleotide phosphate (NADP) were all purchased from Sigma-Aldrich Corporation, USA. Glucose-6-phosphate (G-6-P) was purchased from Shanghai Eybridge Chemical Technology Co., Ltd.
(§4) Ten mM test compound stock solution: a certain amount of test compound was weighed, and dissolved with an appropriate volume of DMSO to prepare a stock solution with a concentration of 10 mM for use.
(§5) Reaction stopping solution: an appropriate amount of internal standard compound phenacetin was dissolved in acetonitrile to prepare a reaction stopping solution with a concentration of 1000 ng/mL for use at room temperature.
(§6) The test compound stock solution was diluted with an organic solvent (usually a mixture of acetonitrile, methanol and water with various ratios, depending on the solubility of the compound, if necessary, 1 N hydrochloric acid or 1 N sodium hydroxide would be added to facilitate solubilization) to the 0.1 mM (the final concentration of the compound in the reaction system was 1 μM) and the concentration percentage of the organic solvents in the incubation system no more than 1% (wherein the percentage of DMSO was required to be no more than 0.1%). An appropriate amount of 100 mM NADP, 500 mM G-6-P and 100 Unit/mL G-6-PDH were mixed and diluted with ultrapure water (the final system contains 1 mM NADP, 5 mM G-6-P and 1 Unit/mL G-6-PDH), pre-incubated in a 37° C. water bath for 10 minutes and then placed on ice for use as a NADPH regeneration solution. 20 mg/mL liver microsomes solution and 200 mM phosphate buffer was mixed, and diluted with ultrapure water to give a liver microsomes solution containing 2.5 mg/mL liver microsomes (the final concentration of the reaction system is 0.5 mg/mL) and 50 mM phosphate buffer. The diluted liver microsomes solution was mixed with 0.1 mM compound solution, a mixture of 100 mM EDTA, 300 mM MgCl2 solution, 200 mM phosphate buffer (the final system was 3 mM MgCl2, 1 mM EDTA and 50 mM phosphate buffer) and water in an appropriate volume was added. Finally, the NADPH regeneration solution was added, then the reaction solution was placed in a 37° C. water bath to start the reaction (the reaction time was 30 minutes), and the reaction was stopped by adding the ice-cold acetonitrile reaction stopping solution containing the internal standard. The 0-minute sample was not incubated in a 37° C. water bath, and its difference from the 30-minute sample further lies in that the ice-cold acetonitrile reaction stopping solution containing the internal standard was added first, and then the NADPH regeneration solution was added. The sample added with the reaction stopping internal standard solution was vortexed and mixed well, and then centrifuged at 4400 rpm for 10 minutes. The supernatant was taken and diluted ten times with 50% methanol for LC-MS/MS analysis.
(§7) LC-MS/MS was used to determine the concentration of the compound in the sample. The percentage of the remaining compound after 30 minutes of incubation comparing with that in the 0-minute sample was calculated using the peak area ratio of the compound to the internal standard as an indicator, to evaluate the metabolic stability of the compound.
(§8) Instrument: API4500, API4000 or LTQ Mass Spectrometer; the liquid phase is UHPLC system (Shimadzu LC-30 AD, model Nexra X2) including liquid delivery unit, column thermostat, detector and autosampler; or Agilent 1200 Binary Pump series HPLC and CTC Autosampler.
(§9) Chromatographic column: Waters XSELECT Hss T3 C18 (2.5 μm, 2.1×50 mm) or […] (5 μm, 2.0×50 mm)
(§10) A: water with 0.1% FA (formic acid) (with or without 0.1% ACN (acetonitrile))
(§11) B: acetonitrile with 0.1% FA (formic acid).

[2] = Stability test in liver microsomes (mouse); assay type: in vitro ADME; conditions: mouse liver microsomes 0.5 mg/mL, compound 1 μM, 37° C.
From the text: as §1, §2, §3, §4, §5, §6, §7, §8, §9, §10, §11

[3] = test system: B cell activation in mouse whole blood induced by anti-IgD antibodies; assay: In vivo efficacy of the inhibitory effect on BTK target (anti-IgD antibody-induced B cell activation in mice whole blood after in vivo administration)
Method: Objects: B cells in mice whole blood were induced and activated by the anti-IgD antibody, and the inhibitory effect of the compound of the present invention on B cell activation in vivo was studied, so as to determine the inhibitory effect of the compound of the present invention on the BTK target in vivo.
Methods: C57BL/6 mice (female, 18-20 g, purchased from Shanghai Lingchang Biotechnology Co., Ltd.) were grouped according to Table 2.
The animals of each group were administered, then were placed in CO2 for anesthesia at designated time points, blood samples were taken from […] via retro-orbital bleeding, and heparin was used for anticoagulation; 90 μL of whole blood was taken from mice of each group, and added to a 96 well culture plate, and anti-mouse IgD antibody (BIO-RAD, Cat #MCA4693) was added to each well to a final concentration of 0.01 μg/μL (respectively for the each drug-treated group and anti-IgD antibody-inducted vehicle group); in addition, 90 μL of whole blood of mice in the vehicle group was taken and added to the 96-well culture plate, and PBS (phosphate buffer, GIBCO, Cat #C20012500BT) was added to each well to a final concentration of 0.01 μg/μL (namely, the vehicle control group); Each group was mixed well and incubated in a 37° C./5% CO2 incubator for 4 hours. In addition, the blood of mice in the drug-treated group was centrifuged to separate plasma for blood concentration analysis.
Calculation for B Cell Activation Ratio: B cell activation ratio=percentage of CD69+CD19+double positive B cells/percentage of CD19+single positive B cells
Calculation for Inhibition Ratio: Inhibition ratio=(percentage of B cell activation ratio in anti-IgD antibody-induced vehicle group-percentage of B cell activation ratio in drug-treated group)/(percentage of B cell activation ratio in anti-IgD antibody-induced vehicle group-percentage of B cell activation ratio in vehicle control group)×100%
All data are represented by mean±standard error. For the comparison between each drug-treated group and the anti-IgD antibody-induced vehicle group, p value was calculated by Graphpad Prism using one-way ANOVA analysis of variance and Dunnett's test, and for the comparison between each drug-treated group, p value was calculated by using unpaired t test.

**Q.** What does the source list for `C[C@H]1CN(C2COC2)CCN1c1ccc(Nc2cc(-c3ccnc(-n4ccn5c6c(cc5c4=O)CC(C)(C)C6)c3CO)nn(C)c2=O)nc1` [Compound 22]?
**A.** stability in rat & mouse liver microsomes compared with the reference GDC-0853 [1]: better than that of the reference GDC-0853; RLM (percentage of the remaining compound after 30 minutes of incubation) [1]: 95.6%; MLM (percentage of the remaining compound after 30 minutes of incubation) [2]: 83.4%

**Q.** With `C[C@@H]1CN(c2ccc(Nc3cc(-c4ccnc(-n5ccn6c7c(cc6c5=O)CCC7)c4CO)cn(C)c3=O)nc2)[C@@H](C)CN1C1COC1` [Compound 2, 2-(5-((5-((2S,5R)-2,5-dimethyl-4-(oxetan-3-yl)piperazin-1-yl)pyridin-2-yl)amino)-3′-(hydroxymethyl)-1-methyl-6-oxo-1,6-dihydro-[3,4′-bispyridin]-2′-yl)-7,8-dihydro-2H-cyclopenta[4,5]pyrrolo[1,2-a]pyrazin-1(6H)-one] as the molecule, how does the “stability in rat & mouse liver microsomes compared with the reference GDC-0853” value (shortened to “stability … compared with the reference GDC-0853”) [1] read?
**A.** better than that of the reference GDC-0853

**Q.** What about the “RLM (percentage of the remaining compound after 30 minutes of incubation)” value [1] of the same molecule?
**A.** 98.9%

**Q.** And the “MLM (percentage of the remaining compound after 30 minutes of incubation)” value [2]?
**A.** 90.5%

**Q.** What does the source list for `C[C@H]1CN(C2COC2)CCN1c1ccc(Nc2cc(-c3ccnc(-n4ncn5c6c(cc5c4=O)CC(C)(C)C6)c3CO)cn(C)c2=O)nc1` [Compound 79]?
**A.** stability in rat & mouse liver microsomes compared with the reference GDC-0853 [1]: better than that of the reference GDC-0853; RLM (percentage of the remaining compound after 30 minutes of incubation) [1]: ~100%; MLM (percentage of the remaining compound after 30 minutes of incubation) [2]: ~100%

**Q.** With `C[C@H]1CN(C2COC2)CCN1c1cnc(Nc2cc(-c3ccnc(-n4ccn5c6c(cc5c4=O)CC(C)(C)C6)c3CO)cn(C)c2=O)nc1` [Compound 44] as the molecule, how does the “stability … compared with the reference GDC-0853” value [1] read?
**A.** better than that of the reference GDC-0853

**Q.** What about the “RLM (percentage of the remaining compound after 30 minutes of incubation)” value [1] of the same molecule?
**A.** 97.1%

**Q.** What about the “MLM (percentage of the remaining compound after 30 minutes of incubation)” value [2] of the same molecule?
**A.** 93.1%

**Q.** For `C[C@H]1CN(C2COC2)CCN1c1ccc(Nc2cc(-c3ccnc(-n4ccn5c6c(cc5c4=O)CCC6)c3CO)cn(C)c2=O)nc1` [Compound 64], which “stability … compared with the reference GDC-0853” value [1] is on record?
**A.** better than that of the reference GDC-0853

**Q.** What about the “RLM (percentage of the remaining compound after 30 minutes of incubation)” value [1] of the same molecule?
**A.** 92.1%

**Q.** What about the “MLM (percentage of the remaining compound after 30 minutes of incubation)” value [2] of the same molecule?
**A.** 95.6%

**Q.** Which results are given for `Cn1cc(-c2ccnc(-n3ccn4c5c(cc4c3=O)CC(C)(C)C5)c2CO)cc(Nc2ccc(N3CCN(C4COC4)CC3)cn2)c1=O` [Compound 9]?
**A.** stability in rat & mouse liver microsomes compared with the reference GDC-0853 [1]: better than that of the reference GDC-0853; RLM (percentage of the remaining compound after 30 minutes of incubation) [1]: 89.5%; MLM (percentage of the remaining compound after 30 minutes of incubation) [2]: 95.7%

**Q.** For `C[C@H]1CN(C2COC2)CCN1c1ccc(Nc2cc(-c3ccnc(-n4ccn5c6c(cc5c4=O)CCC(F)(F)C6)c3CO)cn(C)c2=O)nc1` [Compound 56], which “stability … compared with the reference GDC-0853” value [1] is on record?
**A.** better than that of the reference GDC-0853

**Q.** And the “RLM (percentage of the remaining compound after 30 minutes of incubation)” value [1]?
**A.** 93.7%

**Q.** And the “MLM (percentage of the remaining compound after 30 minutes of incubation)” value [2]?
**A.** 89.5%

**Q.** With `CC1CCc2cc3c(=O)n(-c4nccc(-c5cc(Nc6ccc(N7CCN(C8COC8)C[C@@H]7C)cn6)c(=O)n(C)c5)c4CO)ccn3c2C1` (mixture of isomers) [Compound 78] as the molecule, how does the “stability … compared with the reference GDC-0853” value [1] read?
**A.** better than that of the reference GDC-0853

**Q.** What about the “RLM (percentage of the remaining compound after 30 minutes of incubation)” value [1] of the same molecule?
**A.** 91.8%

**Q.** And the “MLM (percentage of the remaining compound after 30 minutes of incubation)” value [2]?
**A.** 83.4%

**Q.** With `C[C@H]1CN(C2COC2)CCN1c1ccc(Nc2cc(-c3ccnc(-n4ccn5c(cc6ccccc65)c4=O)c3CO)cn(C)c2=O)nc1` [Compound 74] as the molecule, how does the “stability … compared with the reference GDC-0853” value [1] read?
**A.** better than that of the reference GDC-0853

**Q.** What about the “RLM (percentage of the remaining compound after 30 minutes of incubation)” value [1] of the same molecule?
**A.** 87.7%

**Q.** What about the “MLM (percentage of the remaining compound after 30 minutes of incubation)” value [2] of the same molecule?
**A.** 97.5%

**Q.** With `C[C@H]1CN(C2COC2)CCN1c1ccc(Nc2cc(-c3ccnc(-n4cnn5c6c(cc5c4=O)CC(C)(C)C6)c3CO)cn(C)c2=O)nc1` [Compound 63] as the molecule, how does the “stability … compared with the reference GDC-0853” value [1] read?
**A.** better than that of the reference GDC-0853

**Q.** What about the “RLM (percentage of the remaining compound after 30 minutes of incubation)” value [1] of the same molecule?
**A.** 89.6%

**Q.** And the “MLM (percentage of the remaining compound after 30 minutes of incubation)” value [2]?
**A.** 85.8%

**Q.** Which “RLM (percentage of the remaining compound after 30 minutes of incubation)” value [1] does the source give for `C[C@H]1CN(C2COC2)CCN1c1ccc(Nc2cc(-c3ccnc(N4CCn5c(cc6c5CC(C)(C)C6)C4=O)c3CO)cn(C)c2=O)nc1` [GDC-0853, fenebrutinib, reference compound] here?
**A.** 81.0%

**Q.** What about the “Inhibition ratio (%)” value ([3]; 20 mg/kg single oral gavage, 16 h) of the same molecule?
**A.** 9%

**Q.** What about the “B cell activation ratio (the proportion of activated B cells to total B cells)” value ([3]; 20 mg/kg single oral gavage, 16 h, mean ± standard error) of the same molecule?
**A.** 29.3 ± 6.7

**Q.** What about the “inhibition ratio on B cell activation” value ([3]; 20 mg/kg, 16 hours after administration, mice whole blood, anti-IgD antibody) of the same molecule?
**A.** 9%

**Q.** And the “MLM (percentage of the remaining compound after 30 minutes of incubation)” value [2]?
**A.** 76.3%

**Q.** For `C[C@H]1CN(C2COC2)CCN1c1ccc(Nc2cc(-c3ccnc(-n4ccn5c(cc6cc(F)ccc65)c4=O)c3CO)cn(C)c2=O)nc1` [Compound 75], which “stability … compared with the reference GDC-0853” value [1] is on record?
**A.** better than that of the reference GDC-0853

**Q.** What about the “RLM (percentage of the remaining compound after 30 minutes of incubation)” value [1] of the same molecule?
**A.** 84.0%

**Q.** And the “MLM (percentage of the remaining compound after 30 minutes of incubation)” value [2]?
**A.** 83.0%

**Q.** For `C[C@H]1CN(C2COC2)CCN1c1ccc(Nc2cc(-c3ccnc(-n4ccn5c6c(cc5c4=O)CC(F)(F)CC6)c3CO)cn(C)c2=O)nc1` [Compound 58], which “stability … compared with the reference GDC-0853” value [1] is on record?
**A.** better than that of the reference GDC-0853

**Q.** What about the “RLM (percentage of the remaining compound after 30 minutes of incubation)” value [1] of the same molecule?
**A.** ~100%

**Q.** What about the “MLM (percentage of the remaining compound after 30 minutes of incubation)” value [2] of the same molecule?
**A.** 97.1%
